# Data from patent EP3717657B1, “A SYSTEM FOR ASSESSING MICROBIAL SUSCEPTIBILITY TO ANTIBIOTIC AGENTS” (Ascilion AB, priority 2017, dated 2019).
# What was measured:
# [1] = tested on: Escherichia coli ATCC 25922; conditions: E.coli, cited from earlier work
# [2] = tested on: Enterococcus faecalis (ATCC 29212); assay: Antibiotic susceptibility by glucose consumption in culture medium, blood culture bottle inoculum (Example 1); format: cell-based; conditions: for Glucose concentration t=0: 0 minutes; for Glucose concentration t=60: 60 minutes; for Glucose concentration t=120: 120 minutes; for Glucose concentration t=180: 180 minutes; for Glucose concentration t=240: 240 minutes; for dC/dT: rate of change in glucose concentration;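 on dC/dT: rate calculated between the 60 and 180 min readings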
# Outline: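 Bacteria grown in blood culture bottles until positive, diluted 1:100 into cation-adjusted Mueller-Hinton broth with glucose at 1.0 mg/mL plus antibiotic (µg/mL). Glucose read by glucometer at 0–240 min.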
# [3] = tested on: Staphylococcus aureus ATCC 29213; conditions: S.aureus, cited from earlier work; for MIC EUCAST, range in parentheses: range obtained by EUCAST from ISO 20776-1: 2006; for MIC EUCAST: reference MIC value, EUCAST QC tables Version 7.0, 2017
# [4] = tested on: Enterococcus faecalis ATCC 29212; conditions: E.faecalis, cited from earlier work
# [5] = range obtained by EUCAST from ISO 20776-1: 2006
# [6] = reference MIC value, EUCAST QC tables Version 7.0, 2017
smiles,measurement,setting,value
CO[C@@]1(NC(=O)Cc2cccs2)C(=O)N2C(C(=O)O)=C(COC(N)=O)CS[C@@H]21 [Cefoxitin],"MIC EUCAST, range in parentheses",[1]; [5],2 to 8 µg/mL
same,MIC EUCAST,[1]; [6],4 µg/mL
same,MIC,"[2]; Enterococcus faecalis, ATCC29212, E.faecalis, initial value, disregarded because rate of decrease was higher at 32 µg/mL, read-out: MIC value initially obtained",4 µg/mL
same,F=the rate of change in glucose concentration in relation to the reference,"[2]; [Ab] 0,5 µg/mL",88%
same,Glucose concentration t=0,"[2]; [Ab] 0,5 µg/mL",145
same,Glucose concentration t=60,"[2]; [Ab] 0,5 µg/mL",150
same,Glucose concentration t=120,"[2]; [Ab] 0,5 µg/mL",144
same,Glucose concentration t=180,"[2]; [Ab] 0,5 µg/mL",87
same,Glucose concentration t=240,"[2]; [Ab] 0,5 µg/mL",32
same,dC/dT,"[2]; [Ab] 0,5 µg/mL",32
same,F=the rate of change in glucose concentration in relation to the reference,"[2]; [Ab] 0,25 µg/mL",93%
same,Glucose concentration t=0,"[2]; [Ab] 0,25 µg/mL",151
same,Glucose concentration t=60,"[2]; [Ab] 0,25 µg/mL",155
same,Glucose concentration t=120,"[2]; [Ab] 0,25 µg/mL",138
same,Glucose concentration t=180,"[2]; [Ab] 0,25 µg/mL",88
same,Glucose concentration t=240,"[2]; [Ab] 0,25 µg/mL",34
same,dC/dT,"[2]; [Ab] 0,25 µg/mL",34
same,F=the rate of change in glucose concentration in relation to the reference,[2]; [Ab] 1 µg/mL,85%
same,Glucose concentration t=0,[2]; [Ab] 1 µg/mL,148
same,Glucose concentration t=60,[2]; [Ab] 1 µg/mL,159
same,Glucose concentration t=120,[2]; [Ab] 1 µg/mL,142
same,Glucose concentration t=180,[2]; [Ab] 1 µg/mL,98
same,Glucose concentration t=240,[2]; [Ab] 1 µg/mL,31
same,dC/dT,[2]; [Ab] 1 µg/mL,31
same,F=the rate of change in glucose concentration in relation to the reference,[2]; [Ab] 2 µg/mL,99%
same,Glucose concentration t=0,[2]; [Ab] 2 µg/mL,149
same,Glucose concentration t=60,[2]; [Ab] 2 µg/mL,169
same,Glucose concentration t=120,[2]; [Ab] 2 µg/mL,145
same,Glucose concentration t=180,[2]; [Ab] 2 µg/mL,98
same,Glucose concentration t=240,[2]; [Ab] 2 µg/mL,36
same,dC/dT,[2]; [Ab] 2 µg/mL,36
same,F=the rate of change in glucose concentration in relation to the reference,[2]; [Ab] 4 µg/mL,74%
same,Glucose concentration t=0,[2]; [Ab] 4 µg/mL,150
same,Glucose concentration t=60,[2]; [Ab] 4 µg/mL,159
same,Glucose concentration t=120,[2]; [Ab] 4 µg/mL,146
same,Glucose concentration t=180,[2]; [Ab] 4 µg/mL,106
same,Glucose concentration t=240,[2]; [Ab] 4 µg/mL,27
same,dC/dT,[2]; [Ab] 4 µg/mL,27
same,F=the rate of change in glucose concentration in relation to the reference,[2]; [Ab] 8 µg/mL,63%
same,Glucose concentration t=0,[2]; [Ab] 8 µg/mL,144
same,Glucose concentration t=60,[2]; [Ab] 8 µg/mL,149
same,Glucose concentration t=120,[2]; [Ab] 8 µg/mL,147
same,Glucose concentration t=180,[2]; [Ab] 8 µg/mL,104
same,Glucose concentration t=240,[2]; [Ab] 8 µg/mL,23
same,dC/dT,[2]; [Ab] 8 µg/mL,23
same,F=the rate of change in glucose concentration in relation to the reference,[2]; [Ab] 16 µg/mL,68%
same,Glucose concentration t=0,[2]; [Ab] 16 µg/mL,148
same,Glucose concentration t=60,[2]; [Ab] 16 µg/mL,154
same,Glucose concentration t=120,[2]; [Ab] 16 µg/mL,148
same,Glucose concentration t=180,[2]; [Ab] 16 µg/mL,105
same,Glucose concentration t=240,[2]; [Ab] 16 µg/mL,25
same,dC/dT,[2]; [Ab] 16 µg/mL,25
same,F=the rate of change in glucose concentration in relation to the reference,[2]; [Ab] 32 µg/mL,74%
same,Glucose concentration t=0,[2]; [Ab] 32 µg/mL,148
same,Glucose concentration t=60,[2]; [Ab] 32 µg/mL,155
same,Glucose concentration t=120,[2]; [Ab] 32 µg/mL,140
same,Glucose concentration t=180,[2]; [Ab] 32 µg/mL,102
same,Glucose concentration t=240,[2]; [Ab] 32 µg/mL,27
same,dC/dT,[2]; [Ab] 32 µg/mL,27
same,"MIC EUCAST, range in parentheses",[3],1 to 4 µg/mL
same,MIC EUCAST,[3],2 µg/mL
CN[C@H](CC(C)C)C(=O)N[C@H]1C(=O)N[C@@H](CC(N)=O)C(=O)N[C@H]2C(=O)N[C@H]3C(=O)N[C@H](C(=O)N[C@H](C(=O)O)c4cc(O)cc(O)c4-c4cc3ccc4O)[C@H](O)c3ccc(c(Cl)c3)Oc3cc2cc(c3O[C@@H]2O[C@H](CO)[C@@H](O)[C@H](O)[C@H]2O[C@H]2C[C@](C)(N)[C@H](O)[C@H](C)O2)Oc2ccc(cc2Cl)[C@H]1O [Vancomycin],F=the rate of change in glucose concentration in relation to the reference,"[2]; [Ab] 0,5 µg/mL",82%
same,Glucose concentration t=0,"[2]; [Ab] 0,5 µg/mL",154
same,Glucose concentration t=60,"[2]; [Ab] 0,5 µg/mL",155
same,Glucose concentration t=120,"[2]; [Ab] 0,5 µg/mL",148
same,Glucose concentration t=180,"[2]; [Ab] 0,5 µg/mL",96
same,dC/dT,"[2]; [Ab] 0,5 µg/mL",30
same,F=the rate of change in glucose concentration in relation to the reference,"[2]; [Ab] 0,25 µg/mL",82%
same,Glucose concentration t=0,"[2]; [Ab] 0,25 µg/mL",143
same,Glucose concentration t=60,"[2]; [Ab] 0,25 µg/mL",155
same,Glucose concentration t=120,"[2]; [Ab] 0,25 µg/mL",146
same,Glucose concentration t=180,"[2]; [Ab] 0,25 µg/mL",96
same,dC/dT,"[2]; [Ab] 0,25 µg/mL",30
same,F=the rate of change in glucose concentration in relation to the reference,[2]; [Ab] 1 µg/mL,75%
same,Glucose concentration t=0,[2]; [Ab] 1 µg/mL,151
same,Glucose concentration t=60,[2]; [Ab] 1 µg/mL,164
same,Glucose concentration t=120,[2]; [Ab] 1 µg/mL,153
same,Glucose concentration t=180,[2]; [Ab] 1 µg/mL,110
same,dC/dT,[2]; [Ab] 1 µg/mL,27
same,F=the rate of change in glucose concentration in relation to the reference,[2]; [Ab] 2 µg/mL,29%
same,Glucose concentration t=0,[2]; [Ab] 2 µg/mL,147
same,Glucose concentration t=60,[2]; [Ab] 2 µg/mL,160
same,Glucose concentration t=120,[2]; [Ab] 2 µg/mL,152
same,Glucose concentration t=180,[2]; [Ab] 2 µg/mL,139
same,Glucose concentration t=240,[2]; [Ab] 2 µg/mL,94
same,dC/dT,[2]; [Ab] 2 µg/mL,11
same,F=the rate of change in glucose concentration in relation to the reference,[2]; [Ab] 4 µg/mL,19%
same,Glucose concentration t=0,[2]; [Ab] 4 µg/mL,147
same,Glucose concentration t=60,[2]; [Ab] 4 µg/mL,162
same,Glucose concentration t=120,[2]; [Ab] 4 µg/mL,153
same,Glucose concentration t=180,[2]; [Ab] 4 µg/mL,148
same,Glucose concentration t=240,[2]; [Ab] 4 µg/mL,149
same,dC/dT,[2]; [Ab] 4 µg/mL,7
same,F=the rate of change in glucose concentration in relation to the reference,[2]; [Ab] 8 µg/mL,7%
same,Glucose concentration t=0,[2]; [Ab] 8 µg/mL,150
same,Glucose concentration t=60,[2]; [Ab] 8 µg/mL,156
same,Glucose concentration t=120,[2]; [Ab] 8 µg/mL,146
same,Glucose concentration t=180,[2]; [Ab] 8 µg/mL,151
same,Glucose concentration t=240,[2]; [Ab] 8 µg/mL,145
same,dC/dT,[2]; [Ab] 8 µg/mL,3
same,F=the rate of change in glucose concentration in relation to the reference,"[2]; [Ab] 0,125 µg/mL",83%
same,Glucose concentration t=0,"[2]; [Ab] 0,125 µg/mL",148
same,Glucose concentration t=60,"[2]; [Ab] 0,125 µg/mL",154
same,Glucose concentration t=120,"[2]; [Ab] 0,125 µg/mL",149
same,Glucose concentration t=180,"[2]; [Ab] 0,125 µg/mL",94
same,dC/dT,"[2]; [Ab] 0,125 µg/mL",30
same,F=the rate of change in glucose concentration in relation to the reference,"[2]; [Ab] 0,0625 µg/mL",93%
same,Glucose concentration t=0,"[2]; [Ab] 0,0625 µg/mL",145
same,Glucose concentration t=60,"[2]; [Ab] 0,0625 µg/mL",156
same,Glucose concentration t=120,"[2]; [Ab] 0,0625 µg/mL",139
same,Glucose concentration t=180,"[2]; [Ab] 0,0625 µg/mL",89
same,dC/dT,"[2]; [Ab] 0,0625 µg/mL",34
same,"MIC EUCAST, range in parentheses",[3],0.5 to 2 µg/mL
same,MIC EUCAST,[3],1 µg/mL
same,"MIC EUCAST, range in parentheses",[4]; [5],1 to 4 µg/mL
same,MIC EUCAST,[4]; [6],2 µg/mL
